In BindingDB's records for doi:10.1021/jm00055a008 (Tufts University, 1993):

Target: Tetracycline efflux protein TetA(B) (Escherichia coli)
Experiment: Inhibition of [3H]tetracycline uptake into everted membrane vesicles, prepared from tetracycline resistant Escherichia coli D1-209

`CN(C)[C@@H]1C(=O)C(C(N)=O)C(=O)[C@@]2(O)C(=O)C3C(=O)c4c(O)cccc4[C@H](CSCc4ccc(Cl)cc4)C3[C@H](O)C12` (stereo not given in full) [6-(4-Chloro-benzylsulfanylmethyl)-4-dimethylamino-3,5,10,12,12a-pentahydroxy-1,11-dioxo-1,4,4a,5,5a,6,11,12a-octahydro-naphthacene-2-carboxylic acid amide] and `CN(C)[C@@H]1C(=O)C(C(N)=O)C(=O)[C@@]2(O)C(=O)C3C(=O)c4c(O)cccc4[C@H](CSc4ccc(Cl)cc4)C3[C@H](O)C12` (stereo not given in full) [6-(4-Chloro-phenylsulfanylmethyl)-4-dimethylamino-3,5,10,12,12a-pentahydroxy-1,11-dioxo-1,4,4a,5,5a,6,11,12a-octahydro-naphthacene-2-carboxylic acid amide] are within 1.5-fold of each other in IC50: 2100 nM for the first, 1600 nM for the second.

First: CN(C)[C@@H]1C(=O)C(C(N)=O)C(=O)[C@@]2(O)C(=O)C3C(=O)c4c(O)cccc4[C@H](CSCCC(=O)O)C3[C@H](O)C12 (stereo not given in full) [3-(9-Carbamoyl-7-dimethylamino-1,6,8,10a,11-pentahydroxy-10,12-dioxo-5,5a,6,6a,7,10,10a,12-octahydro-naphthacen-5-ylmethylsulfanyl)-propionic acid]
Second: CCCCSC[C@H]1c2cccc(O)c2C(=O)C2C(=O)[C@]3(O)C(=O)C(C(N)=O)C(=O)[C@@H](N(C)C)C3[C@@H](O)C21 (stereo not given in full) [6-Butylsulfanylmethyl-4-dimethylamino-3,5,10,12,12a-pentahydroxy-1,11-dioxo-1,4,4a,5,5a,6,11,12a-octahydro-naphthacene-2-carboxylic acid amide]
The IC50 of the first is 54-fold higher: 43200 nM for the first, 800 nM for the second.

First: CN(C)[C@@H]1C(=O)C(C(N)=O)C(=O)[C@@]2(O)C(=O)C3C(=O)c4c(O)cccc4[C@H](CS(=O)(=O)Cc4ccccc4)C3[C@H](O)C12 (stereo not given in full) [4-Dimethylamino-3,5,10,12,12a-pentahydroxy-1,11-dioxo-6-phenylmethanesulfonylmethyl-1,4,4a,5,5a,6,11,12a-octahydro-naphthacene-2-carboxylic acid amide]
Second: CN(C)[C@@H]1C(=O)C(C(N)=O)C(=O)[C@@]2(O)C(=O)C3C(=O)c4c(O)cccc4[C@H](CSc4ccccc4)C3[C@H](O)C12 (stereo not given in full) [4-Dimethylamino-3,5,10,12,12a-pentahydroxy-1,11-dioxo-6-phenylsulfanylmethyl-1,4,4a,5,5a,6,11,12a-octahydro-naphthacene-2-carboxylic acid amide]
The IC50 of the first is 4.6-fold lower: 1500 nM for the first, 6900 nM for the second.

Compared with `CN(C)[C@@H]1C(=O)C(C(N)=O)C(=O)[C@@]2(O)C(=O)C3C(=O)c4c(O)cccc4[C@H](CSC(C)(C)C)C3[C@H](O)C12` (stereo not given in full) [6-tert-Butylsulfanylmethyl-4-dimethylamino-3,5,10,12,12a-pentahydroxy-1,11-dioxo-1,4,4a,5,5a,6,11,12a-octahydro-naphthacene-2-carboxylic acid amide], `CSC[C@H]1c2cccc(O)c2C(=O)C2C(=O)[C@]3(O)C(=O)C(C(N)=O)C(=O)[C@@H](N(C)C)C3[C@@H](O)C21` (stereo not given in full) [4-Dimethylamino-3,5,10,12,12a-pentahydroxy-6-methylsulfanylmethyl-1,11-dioxo-1,4,4a,5,5a,6,11,12a-octahydro-naphthacene-2-carboxylic acid amide] is 16-fold higher in IC50: 500 nM for the first, 7900 nM for the second. The first is the more potent here.

`COc1ccc(SC[C@H]2c3cccc(O)c3C(=O)C3C(=O)[C@]4(O)C(=O)C(C(N)=O)C(=O)[C@@H](N(C)C)C4[C@@H](O)C32)cc1` (stereo not given in full) [4-Dimethylamino-3,5,10,12,12a-pentahydroxy-6-(4-methoxy-phenylsulfanylmethyl)-1,11-dioxo-1,4,4a,5,5a,6,11,12a-octahydro-naphthacene-2-carboxylic acid amide] and `CN(C)[C@@H]1C(=O)C(C(=O)NCN2CCOCC2)C(=O)[C@@]2(O)C(=O)C3C(=O)c4c(O)cccc4[C@H](CSC4CCCC4)C3[C@H](O)C12` (stereo not given in full) [6-Cyclopentylsulfanylmethyl-4-dimethylamino-3,5,10,12,12a-pentahydroxy-1,11-dioxo-1,4,4a,5,5a,6,11,12a-octahydro-naphthacene-2-carboxylic acid (morpholin-4-ylmethyl)-amide] are within 1.5-fold of each other in IC50: 1200 nM for the first, 1000 nM for the second.
